Laboratory results published in article PMC8637530, “Modulatory Actions of the Glycine Receptor β Subunit on the Positive Allosteric Modulation of Ethanol in α2 Containing Receptors” (Frontiers in Molecular Neuroscience, 2021).

Columns and labels:
Assay in all cases: whole-cell patch clamp, HEK293
Assay type in all cases: cell-based
Settings in all cases: -60 mV, 20-24 °C, pH 7.4; agonist
[1] = system: T1, α2 GlyR (homomeric)
T1 construct: gene GLRA2; recombinant homomeric receptor expressed in HEK293 cells
Source text: whole-cell patch clamp, HEK293 on α2 GlyR (homomeric)

[2] = system: T2, α1β GlyR (heteromeric)
T2 construct: gene GLRA1; recombinant heteropentamer in HEK293 cells, excess beta cDNA (1 μg alpha/EGFP plus 4 μg beta)
Source text: whole-cell patch clamp, HEK293 on α1β GlyR (heteromeric)

[3] = system: T3, α1 GlyR (homomeric)
T3 construct: gene GLRA1; recombinant homomeric receptor expressed in HEK293 cells; EGFP co-transfected
Source text: whole-cell patch clamp, HEK293 on α1 GlyR (homomeric)

EC50 [1]: 86 ± 2 µM
SMILES: NCC(=O)O [Glycine]
